Patent US11098061B2 (Celgene CAR LLC, priority 2013, dated 2021)

Assays:
[1] = target: p38a activated, mitogen-activated protein kinase-activated protein kinase 2 (MAPKAP-K2 or MK-2) enzyme (Homo sapiens (Human), UniProt P49137); test: MK2 Omnia continuous-read kinase assay for compound potency; type: biochemical; details: [MK-2]=0.4 nM, [ATP]=1.0 mM, [ST3-Sox]=10 μM
Source text: The protocol below describes a continuous-read kinase assay optimized to measure potency of compounds against p38a activated, mitogen-activated protein kinase-activated protein kinase 2 (MAPKAP-K2 or MK-2) enzyme. The mechanics of the assay platform are best described by the vendor (Invitrogen, Carlsbad, Calif.) on their website at the following URL: invitrogen.com/search/global/searchAction. action?resultPage=1 &resultsPerPage=15 &query=om nia&personaFilterTerm=Support+%26+Troubleshoot
Kinase reactions were started with the addition of 40 μL of MK-2 enzyme and monitored every 71 seconds for 30-240 minutes at λex360/λem485 in a Synergy^2, Synergy^4 or Synergy H^4 plate reader from BioTek (Winooski, Vt.). […] Initial velocity (0 minutes to +30 minutes) from each reaction was estimated from the slope of a plot of relative fluorescence units vs time (minutes) and normalized to the no enzyme and no inhibitor control groups for % Inhibition. The resulting % Inhibition values were then plotted against inhibitor concentration to estimate IC50 from log[Inhibitor] vs Response, Variable Slope model in GraphPad Prism from GraphPad Software (San Diego, Calif.).
[MK-2]=0.4 nM, [ATP]=1.0 mM and [ST3-Sox]=10 μM (ATP ^appKM=8-10 μM)

[2] = target: MK2 (Homo sapiens (Human), UniProt P49137); test: MK2 modification assessment by whole protein mass spectrometry; type: binding; details: intact MK2, 60 min, 10-fold excess of compound to protein
Chain of MK2 (P49137 whole entry): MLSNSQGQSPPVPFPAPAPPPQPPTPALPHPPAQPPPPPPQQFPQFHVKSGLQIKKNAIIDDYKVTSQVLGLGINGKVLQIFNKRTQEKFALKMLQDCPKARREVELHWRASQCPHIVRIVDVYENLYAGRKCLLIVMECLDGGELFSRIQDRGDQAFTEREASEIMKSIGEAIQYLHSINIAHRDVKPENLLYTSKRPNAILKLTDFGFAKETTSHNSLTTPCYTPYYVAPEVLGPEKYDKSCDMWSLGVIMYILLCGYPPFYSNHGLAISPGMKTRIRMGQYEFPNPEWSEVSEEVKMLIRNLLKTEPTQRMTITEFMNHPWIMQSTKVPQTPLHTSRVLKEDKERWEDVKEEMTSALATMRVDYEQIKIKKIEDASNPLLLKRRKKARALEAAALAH
Method: Modification of MK2 is measured by whole protein MS analysis. […] 5 μL aliquots of the samples were diluted with 15 μL of 0.2% TFA prior to micro C4 ZipTipping directly onto the MALDI target using sinapinic acid as the desorption matrix (10 mg/ml in 0.1% TFA:Acetonitrile 50:50). Analysis was performed on a AB Sciex 4800 MALDI TOF/TOF retro fitted with an HM2 detector (CovalX). Percent modification of target MK2 (i.e., the percent of total MK2 modified by the test compound) for each compound was calculated by subtracting the centroid mass of the compound treated MK2 from the centroid mass of the control MK2 and dividing that value with the mass of the compound.

Chain of p38a activated, mitogen-activated protein kinase-activated protein kinase 2 (MAPKAP-K2 or MK-2) enzyme (P49137 whole entry): as above

Compound | IC50 [1] [nM] | MK2 Mass Mod [2]
CN(C)C/C=C/C(=O)Nc1ccccc1NC(=O)c1ccc2cc3n(c2c1)CCNC3=O [Compound V-5, (E)-N-(2-(4-(dimethylamino)but-2-enamido)phenyl)-1-oxo-1,2,3,4-tetrahydropyrazino[1,2-a]indole-7-carboxamide] | > 1000 | G (mass modification ≤30%)
C=CC(=O)Nc1ccccc1Nc1nccc(-c2cc3c([nH]2)C2(CCCNC2)CNC3=O)n1 (racemic) [Compound I-5, N-(2-((4-(4′-oxo-1′,4′,5′,6′-tetrahydrospiro[piperidine-3,7′-pyrrolo[3,2-c]pyridin]-2′-yl)pyrimidin-2-yl)amino)phenyl)acrylamide] | > 1000 | F (mass modification of 31-69%)
C=CC(=O)N1CC(C)(C)Oc2ccc(-c3ccc4c(ccc5sc6c(c54)NC[C@@H](C)NC6=O)n3)cc21 [III-55, (R)-3-(4-acryloyl-2,2-dimethyl-3,4-dihydro-2H-benzo[b][1,4]oxazin-6-yl)-10-methyl-9,10,11,12-tetrahydro-8H-[1,4]diazepino[5′,6′:4,5]thieno[3,2-f]quinolin-8-one] | < 100 | G (mass modification ≤30%)
C=CC(=O)N1CCOc2ccc(-c3nccc(-c4cc5c([nH]4)CCNC5=O)n3)cc21 [II-25, 2-(2-(4-acryloyl-3,4-dihydro-2H-benzo[b][1,4]oxazin-6-yl)pyrimidin-4-yl)-6,7-dihydro-1H-pyrrolo[3,2-c]pyridin-4(5H)-one] | < 100 | E (mass modification of ≥70%)
C=CC(=O)Nc1cc(-c2cc(Nc3c(N[C@H](C)c4ccccc4)c(=O)c3=O)ccn2)ccc1OC [VI-9, (R)—N-(5-(4-((3,4-dioxo-2-((1-phenylethyl)amino)cyclobut-1-en-1-yl)amino)pyridin-2-yl)-2-methoxyphenyl)acrylamide] | > 1000 | G (mass modification ≤30%)
C=CC(=O)Nc1cc(NC(=O)c2ccc3cc4n(c3c2)CCNC4=O)ccc1N1CCN(CC)CC1 [Compound V-1, N-(3-acrylamido-4-(4-ethylpiperazin-1-yl)phenyl)-1-oxo-1,2,3,4-tetrahydropyrazino[1,2-a]indole-7-carboxamide] | 501 to 999 | E (mass modification of ≥70%)
C=CC(=O)N1CCc2ccc(NC(=O)c3ccc4cc5n(c4c3)CCNC5=O)cc21 [Compound V-9, N-(1-acryloylindolin-6-yl)-1-oxo-1,2,3,4-tetrahydropyrazino[1,2-a]indole-7-carboxamide] | 101 to 500 | E (mass modification of ≥70%)
C=CC(=O)Nc1ccccc1NC(=O)c1ccc2cc3n(c2c1)CCNC3=O [Compound V-8, N-(2-acrylamidophenyl)-1-oxo-1,2,3,4-tetrahydropyrazino[1,2-a]indole-7-carboxamide] | > 1000 | E (mass modification of ≥70%)
C=CC(=O)Nc1cc(-c2nccc(-c3cc4c([nH]3)CCNC4=O)n2)ccc1OCCOC [II-22, N-(2-(2-methoxyethoxy)-5-(4-(4-oxo-4,5,6,7-tetrahydro-1H-pyrrolo[3,2-c]pyridin-2-yl)pyrimidin-2-yl)phenyl)acrylamide] | < 100 | E (mass modification of ≥70%)
C=CC(=O)N1CCC[C@H](NC(=O)c2ccc3cc4n(c3c2)C2(CCC2)CNC4=O)C1 [Compound V-47, (S)—N-(1-acryloylpiperidin-3-yl)-1′-oxo-2′,3′-dihydro-1′H-spiro[cyclobutane-1,4′-pyrazino[1,2-a]indole]-7′-carboxamide] | > 1000 | G (mass modification ≤30%)
C=CC(=O)NC1CS(=O)(=O)CC1NC(=O)c1ccc2sc3c(c2c1)NC[C@@H](C)NC3=O (stereo partly drawn) [III-49] | < 100 | G (mass modification ≤30%)
C=CC(=O)N[C@H]1CN(C(=O)c2ccc3cc4n(c3c2)CCNC4=O)CC[C@H]1C [Compound V-2, N-((3R,4R)-4-methyl-1-(1-oxo-1,2,3,4-tetrahydropyrazino[1,2-a]indole-7-carbonyl)piperidin-3-yl)acrylamide] | > 1000 | G (mass modification ≤30%)
C=CC(=O)N1Cc2cccc(NC(=O)c3ccc4cc5n(c4c3)C3(CCC3)CNC5=O)c2C1 [Compound V-48, N-(2-acryloylisoindolin-4-yl)-1′-oxo-2′,3′-dihydro-1′H-spiro[cyclobutane-1,4′-pyrazino [1,2-a]indole]-7′-carboxamide] | > 1000 | G (mass modification ≤30%)
C[C@@H]1CNc2c(sc3ccc(C(=O)Nc4ccc5c(c4)N(C(=O)/C=C/CN(C)C)CCO5)cc23)C(=O)N1 [III-9, (R,E)-N-(4-(4-(dimethylamino)but-2-enoyl)-3,4-dihydro-2H-benzo[b][1,4]oxazin-6-yl)-3-methyl-5-oxo-2,3,4,5-tetrahydro-1H-benzo[4,5]thieno[3,2-e][1,4]diazepine-9-carboxamide] | > 1000 | F (mass modification of 31-69%)
C=CC(=O)NC1CCCCC1NC(=O)c1ccc2cc3n(c2c1)CCNC3=O (racemic) [Compound V-10, Racemic N-((1S,2R)-2-acrylamidocyclohexyl)-1-oxo-1,2,3,4-tetrahydropyrazino[1,2-a]indole-7-carboxamide] | > 1000 | G (mass modification ≤30%)
C=CC(=O)Nc1ccccc1NC(=O)c1ccc2cc3n(c2c1)C1(CCC1)CNC3=O [Compound V-14, N-(2-acrylamidophenyl)-1′-oxo-2′,3′-dihydro-1′H-spiro[cyclobutane-1,4′-pyrazino [1,2-a]indole]-7′-carboxamide] | > 1000 | E (mass modification of ≥70%)
C=CC(=O)Nc1ccc2[nH]c(-c3ccc4cc5n(c4c3)C3(CCC3)CNC5=O)nc2c1 [Compound V-59, N-(2-(1′-oxo-2′,3′-dihydro-1′H-spiro[cyclobutane-1,4′-pyrazino [1,2-a]indol]-7′-yl)-1H-benzo[d]imidazol-5-yl)acrylamide] | < 100 | G (mass modification ≤30%)
C=CC(=O)N[C@@H]1CCCN(C(=O)c2ccc3cc4n(c3c2)C2(CCC2)CNC4=O)C1 [Compound V-52, (R)—N-(1-(1′-oxo-2′,3′-dihydro-1′H-spiro[cyclobutane-1,4′-pyrazino [1,2-a]indol]-7′-ylcarbonyl)piperidin-3-yl)acrylamide] | > 1000 | G (mass modification ≤30%)
C=CC(=O)N1CCOc2ncc(-c3cc4c(cn3)CCc3c-4[nH]c4c3C(=O)NCC4)cc21 [II-18, 2-(1-acryloyl-2,3-dihydro-1H-pyrido[2,3-b][1,4]oxazin-7-yl)-8,9,10,11-tetrahydro-SH-pyrido[3′,4′:4,5]pyrrolo[2,3-f]isoquinolin-7(6H)-one] | < 100 | E (mass modification of ≥70%)
C=CC(=O)Nc1ccc2oc(-c3ccc4cc5n(c4c3)C3(CCC3)CNC5=O)nc2c1 [Compound V-60, N-(2-(1′-oxo-2′,3′-dihydro-1′H-spiro[cyclobutane-1,4′-pyrazino [1,2-a]indol]-7′-yl)benzo[d]oxazol-5-yl)acrylamide] | < 100 | G (mass modification ≤30%)
C=CC(=O)N1CCOc2ncc(-c3nccc(-c4cc5c([nH]4)CCNC5=O)n3)cc21 [II-23, 2-(2-(1-acryloyl-2,3-dihydro-1H-pyrido[2,3-b][1,4]oxazin-7-yl)pyrimidin-4-yl)-6,7-dihydro-1H-pyrrolo[3,2-c]pyridin-4(5H)-one] | < 100 | E (mass modification of ≥70%)
C=CC(=O)Nc1cc(-c2nccc(-c3cc4c([nH]3)CCNC4=O)n2)cnc1OCCOC [II-21, N-(2-(2-methoxyethoxy)-5-(4-(4-oxo-4,5,6,7-tetrahydro-1H-pyrrolo[3,2-c]pyridin-2-yl)pyrimidin-2-yl)pyridin-3-yl)acrylamide] | < 100 | E (mass modification of ≥70%)
C=CC(=O)NC1CCCC1NC(=O)c1ccc2cc3n(c2c1)C1(CCC1)CNC3=O (racemic) [Compound V-55, N-cis-(2-acrylamidocyclopentyl)-1′-oxo-2′,3′-dihydro-1′H-spiro[cyclobutane-1,4′-pyrazino[1,2-a]indole]-7′-carboxamide (racemic)] | > 1000 | G (mass modification ≤30%)
C=CC(=O)Nc1cc(Nc2c(C)c(NC3CCCNC3)nc3ccnn23)ccc1OCC (stereo not drawn) [IV-1, N-(2-ethoxy-5-((6-methyl-5-(piperidin-3-ylamino)pyrazolo [1,5-a]pyrimidin-7-yl)amino)phenyl)acrylamide] | 501 to 999 | G (mass modification ≤30%)
